Consider seven compounds from patent US20240391930A1, “SPIROCYCLIC BICYCLIC MODULATORS OF CHOLESTEROL BIOSYNTHESIS AND THEIR USE FOR PROMOTING REMYELINATION” (GENENTECH, INC., priority 2021, published 2024).

The target of assay [1] is T1, human emopamil binding protein and human 7-dehydrocholesterol reductase (hEBP-DHCR7) (Homo sapiens, UniProt Q15125).
T1 construct: expressed in transfected cells; host or cells: HEK 293 cells, transient transfection with 2 DNA constructs
The assay can be described thus: hEBP-DHCR7 radioligand filtration binding assay. To be noted: membranes of HEK293 co-expressing hEBP and DHCR7; [3H] 2-thia-6-azaspiro[3.4]octane radioligand; 8 doses 0.06 to 5000 nM. The procedure, abridged:
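Membranes from HEK293 cells transiently co-expressing human EBP and DHCR7 (10 μg/well) incubated 3 h at 22 °C with tritiated 2-thia-6-azaspiro[3.4]octane dioxide radioligand (25 nM stock addition) and compound at 0.06–5000 nM final. Bound ligand collected on PEI-treated GF/B filters, scintillation-counted. IC50 by Hill fit; reported as Ki.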

Assay [2] has as its system zymostenol accumulation in EpiSC-derived OPCs (EBP). The assay can be described thus: GC/MS-based sterol profiling (zymostenol accumulation). The format is cell-based. Particulars: Mus musculus, 24 hours, 8 doses from 0.15 nM to 333 nM, read-out: Zymostenol GCMS EC50. The procedure, abridged: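 Zymostenol level is expressed relative to that after 24 h with 100 nM positive-control reference, measured by full-scan GC/MS (m/z 458) with cholesterol-d7 internal standard after BSTFA derivatisation. Cells were EpiSC-derived OPCs, 100,000/well in N2B27 without growth factors, treated 24 h, from two or more independent platings.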

Another assay concerns EpiSC-derived OPCs. The assay can be described thus: In vitro phenotypic screening of OPCs (MBP high-content imaging). The class given is cell-based. To be noted: Mus musculus, 72 h; percentage of MBP-positive oligodendrocytes, 3 days, 0.5 nM to 1000 nM; read-out: OPC EC50. The procedure, abridged:
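Mouse EpiSC-derived OPCs seeded at 150,000/cm^2 without growth factors, treated 3 days at 37° C with 8-point doses from 1000 nM to 0.5 nM. Fixed, MBP immunostained with DAPI; high-content imaging gives percentage MBP-positive oligodendrocytes.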

T1 sequence (Q15125 whole entry): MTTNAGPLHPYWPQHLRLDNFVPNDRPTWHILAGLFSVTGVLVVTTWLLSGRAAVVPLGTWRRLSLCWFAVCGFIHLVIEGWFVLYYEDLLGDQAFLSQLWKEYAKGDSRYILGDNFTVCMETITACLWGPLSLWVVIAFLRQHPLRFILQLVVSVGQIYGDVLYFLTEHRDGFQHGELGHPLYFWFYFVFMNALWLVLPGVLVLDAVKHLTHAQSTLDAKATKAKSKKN

Broadly, the Ki is the dissociation constant of the complex between target and ligand, obtained from inhibition or displacement. Read a high Ki as a looser hold on the target. A word on the EC50: it is the concentration that produces a half-maximal response. Turning to `O=S1(=O)CC2(CCN([C@H]3C[C@@H]4[C@H](C3)[C@H]4c3cc(C(F)(F)F)nn3CC(F)F)CC2)C1` (single isomer, unassigned) [Compound 63*], the Ki in assay [1] is 65.2 nM. Moreover, the EC50 in assay [2] stood at 19 nM; with EpiSC-derived OPCs, 130 nM.
The corresponding values for `CC(C)n1nc(-c2cncc(C(F)(F)F)c2)cc1[C@H]1[C@@H]2C[C@@H](N3CC[C@]4(CCS(=O)(=O)C4)C3)C[C@@H]21` (single isomer, unassigned) [Compound 8*] are 18.1 nM, 3.6 nM and 2.5 nM.
Take `CC(C)n1nc(-c2ccc(C(F)(F)F)nc2)cc1[C@H]1[C@@H]2C[C@@H](N3CCC4(C3)CS(=O)(=O)C4)C[C@@H]21` (single isomer, unassigned) [Compound 13]: in assay [1], the Ki was 37.1 nM. For the same compound, the values for the EC50 (in assay [2]; with EpiSC-derived OPCs) were 6.5 nM and 17 nM, respectively.
In assay [1], `CC(C)n1nc(-c2cncc(C(F)(F)F)c2)cc1[C@H]1[C@@H]2C[C@H](N3CC[C@]4(CCS(=O)(=O)C4)C3)C[C@@H]21` (single isomer, unassigned) [Compound 10*] yielded an inhibition constant (Ki) of 19.9 nM. Moreover, the EC50 in assay [2] turned out to be 4.8 nM; with EpiSC-derived OPCs it was 13 nM.
As to `CCn1nc(-c2ccnc(C(F)(F)F)c2)cc1[C@H]1[C@@H]2C[C@@H](N3CCC4(C3)CS(=O)(=O)C4)C[C@@H]21` [Compound 26, 6-((1R,3s,5S,6r)-6-(1-ethyl-3-(2-(trifluoromethyl)pyridin-4-yl)-1H-pyrazol-5-yl)bicyclo[3.1.0]hexan-3-yl)-2-thia-6-azaspiro[3.4]octane 2,2-dioxide], the Ki in assay [1] was found to be 19.8 nM. The half-maximal effective concentration (EC50) came to 4.4 nM in assay [2] and 6.5 nM with EpiSC-derived OPCs.
`CCn1nc(-c2cccnc2)cc1[C@H]1[C@@H]2C[C@H](N3CCC4(C3)CS(=O)(=O)C4)C[C@@H]21` (single isomer, unassigned) [Compound 65*] returned an inhibition constant (Ki) in assay [1] of 51.9 nM. Moreover, the EC50 in assay [2] stood at 18 nM; in the assay on EpiSC-derived OPCs it was 65 nM.
The compound `CC(C)n1nc([C@H]2CC[C@H](C(F)(F)F)CC2)cc1[C@H]1[C@@H]2C[C@@H](N3CCC4(C3)CS(=O)(=O)C4)C[C@@H]21` (single isomer, unassigned) [Compound 107] yielded an inhibitory constant (Ki) in assay [1] of 16 nM. For the same compound, the values for the EC50 (in assay [2]; with EpiSC-derived OPCs) were 7.59 nM and 52.5 nM, respectively.
